Holding throughout (type): cell-based, human
Assay [1] concerns autologous T cells of healthy donors. More on the design: key: +: positive response.
The test system is the same in assay [2]. Details: key: +: positive response. The source holds these as a separate data set.
Assay [3] has the same test system. Details: key: +: positive response. The source holds these as a separate data set.
The test system is the same in assay [4]. More on the design: key: +: positive response. This is another data set of the same source.
In assay [5] the test system is PBMC from SARS-CoV-2 convalescent donors.

In the case of “PLVDLPIGINITRFQTLLALHRSYLTPGDSSSG [SLP 32]”, in assay [1], the Proliferation entry is given as “+”. Further, the ELISA entry in assay [2] is “+”. Besides, the “positive response detected on two time points with the same assay” value in assay [3] is “+”.
On to GNGGDAALALLLLDRLNQLESKMSGKGQ [SLP 39], for which the Proliferation result in assay [1] is “+”. Moreover, in assay [2], the ELISA entry is on record as “+”. Also, in assay [3], the “positive response detected on one time point with two different assays” value is listed as “+” and the “positive response detected on two time points with the same assay” value is listed as “+”. The ELISpot entry in assay [4] is reported as “+”.
Turning to IRQGTDYKHWPQIAQFAPSASAFFG [SLP 46], in assay [5], the “IFNγ ELISpot response” value is on record as “high responses” and the “immunogenicity compared to the other SLPs” value is listed as “remarkably immunogenic”.
In the case of LFARTRSMWSFNPETNILLNV [SLP 19], the Proliferation result in assay [1] is listed as “+”. The ELISA result in assay [2] is “+”. Moreover, in assay [3], the “positive response detected on one time point with two different assays” value is reported as “+” and the “positive response detected on two time points with the same assay” value is given as “+”. Further, the “IFNγ ELISpot response” value in assay [5] was “high responses”.
With ALNTLVKQLSSNFGAISSVLNDILSRLDKV [SLP 9], the Proliferation entry in assay [1] was “+”. Further, the ELISA result in assay [2] is “+”. The “positive response detected on one time point with two different assays” value in assay [3] is given as “+”. Moreover, in assay [4], the ELISpot entry is reported as “+”.

For the origin of these results see patent publication US20230143215A1 (priority 2020, published 2023).
